In ChEMBL document CHEMBL4433199, “First-in-class allosteric inhibitors of bacterial IMPDHs” (Eur J Med Chem, 2019):
Blank lines part the entries; values can stand above or below the compound they belong to. The source made the active and inactive calls. The calls are words filed in the database; no cut-off is given here.

How the values were obtained:
[1] = target: T1, Inosine-5'-monophosphate dehydrogenase (Pseudomonas aeruginosa (strain ATCC 15692 / DSM 22644 / CIP 104116 / JCM14847 / LMG 12228 / 1C / PRS 101 / PAO1), UniProt Q9HXM5); assay: Inhibition of Pseudomonas aeruginosa IMPDH using IMP as substrate in the presence of NAD+ incubated for 70 secs
T1 sequence (Q9HXM5 whole entry): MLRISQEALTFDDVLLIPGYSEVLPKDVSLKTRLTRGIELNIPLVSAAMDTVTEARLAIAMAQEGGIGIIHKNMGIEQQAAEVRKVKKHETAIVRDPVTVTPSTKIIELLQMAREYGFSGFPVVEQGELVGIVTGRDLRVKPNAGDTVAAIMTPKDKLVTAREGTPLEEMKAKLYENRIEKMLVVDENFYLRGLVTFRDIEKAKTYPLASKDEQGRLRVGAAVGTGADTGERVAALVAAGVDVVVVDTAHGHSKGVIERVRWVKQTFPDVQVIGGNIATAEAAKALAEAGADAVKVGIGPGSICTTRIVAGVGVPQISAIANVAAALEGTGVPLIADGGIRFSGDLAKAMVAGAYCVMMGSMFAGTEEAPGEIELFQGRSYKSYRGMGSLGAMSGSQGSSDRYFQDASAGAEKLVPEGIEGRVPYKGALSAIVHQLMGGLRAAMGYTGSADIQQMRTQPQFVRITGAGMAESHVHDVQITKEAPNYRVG

[2] = target: T2, Inosine-5'-monophosphate dehydrogenase (Pseudomonas aeruginosa (strain ATCC 15692 / DSM 22644 / CIP 104116 / JCM14847 / LMG 12228 / 1C / PRS 101 / PAO1)) (UniProt Q9HXM5); assay: Competitive inhibition of Pseudomonas aeruginosa IMPDH using IMP as substrate and NAD+ in presence of varying ATP incubated for 70 secs
T2 sequence (whole entry): T1 sequence (Q9HXM5 whole entry)

[3] = target: T2, Inosine-5'-monophosphate dehydrogenase (Pseudomonas aeruginosa (strain ATCC 15692 / DSM 22644 / CIP 104116 / JCM14847 / LMG 12228 / 1C / PRS 101 / PAO1)); assay: Inhibition of Pseudomonas aeruginosa IMPDH at 18.2 uM using IMP as substrate in the presence of NAD+ incubated for 70 secs relative to control
[4] = target: T2, Inosine-5'-monophosphate dehydrogenase (Pseudomonas aeruginosa (strain ATCC 15692 / DSM 22644 / CIP 104116 / JCM14847 / LMG 12228 / 1C / PRS 101 / PAO1)); assay: Inhibition of Pseudomonas aeruginosa IMPDH at 37.1 uM using IMP as substrate in the presence of NAD+ incubated for 70 secs relative to control
[5] = target: T2, Inosine-5'-monophosphate dehydrogenase (Pseudomonas aeruginosa (strain ATCC 15692 / DSM 22644 / CIP 104116 / JCM14847 / LMG 12228 / 1C / PRS 101 / PAO1)); assay: Inhibition of Pseudomonas aeruginosa IMPDH assessed as Km for IMP at 10 uM using IMP as substrate in presence of 2 mM NAD+ and 0.2 mM MgATP (reference value: 483 +/- 65 microM)
[6] = target: T2, Inosine-5'-monophosphate dehydrogenase (Pseudomonas aeruginosa (strain ATCC 15692 / DSM 22644 / CIP 104116 / JCM14847 / LMG 12228 / 1C / PRS 101 / PAO1)); assay: Inhibition of Pseudomonas aeruginosa IMPDH at 49.8 uM using IMP as substrate in the presence of NAD+ incubated for 70 secs relative to control
[7] = target: T2, Inosine-5'-monophosphate dehydrogenase (Pseudomonas aeruginosa (strain ATCC 15692 / DSM 22644 / CIP 104116 / JCM14847 / LMG 12228 / 1C / PRS 101 / PAO1)); assay: Inhibition of Pseudomonas aeruginosa IMPDH at 40 uM using IMP as substrate in the presence of NAD+ incubated for 70 secs relative to control
[8] = target: T2, Inosine-5'-monophosphate dehydrogenase (Pseudomonas aeruginosa (strain ATCC 15692 / DSM 22644 / CIP 104116 / JCM14847 / LMG 12228 / 1C / PRS 101 / PAO1)); assay: Inhibition of Pseudomonas aeruginosa IMPDH at 38.5 uM using IMP as substrate in the presence of NAD+ incubated for 70 secs relative to control
[9] = target: T2, Inosine-5'-monophosphate dehydrogenase (Pseudomonas aeruginosa (strain ATCC 15692 / DSM 22644 / CIP 104116 / JCM14847 / LMG 12228 / 1C / PRS 101 / PAO1)); assay: Inhibition of Pseudomonas aeruginosa IMPDH at 55.6 uM using IMP as substrate in the presence of NAD+ incubated for 70 secs relative to control
[10] = target: T2, Inosine-5'-monophosphate dehydrogenase (Pseudomonas aeruginosa (strain ATCC 15692 / DSM 22644 / CIP 104116 / JCM14847 / LMG 12228 / 1C / PRS 101 / PAO1)); assay: Inhibition of Pseudomonas aeruginosa IMPDH at 54.6 uM using IMP as substrate in the presence of NAD+ incubated for 70 secs relative to control
[11] = target: T2, Inosine-5'-monophosphate dehydrogenase (Pseudomonas aeruginosa (strain ATCC 15692 / DSM 22644 / CIP 104116 / JCM14847 / LMG 12228 / 1C / PRS 101 / PAO1)); assay: Inhibition of Pseudomonas aeruginosa IMPDH assessed as Km for IMP at 20 uM using IMP as substrate in presence of 2 mM NAD+ and 0.2 mM MgATP (reference value: 483 +/- 65 microM)
[12] = target: T2, Inosine-5'-monophosphate dehydrogenase (Pseudomonas aeruginosa (strain ATCC 15692 / DSM 22644 / CIP 104116 / JCM14847 / LMG 12228 / 1C / PRS 101 / PAO1)); assay: Inhibition of Pseudomonas aeruginosa IMPDH at 46.2 uM using IMP as substrate in the presence of NAD+ incubated for 70 secs relative to control
[13] = target: T2, Inosine-5'-monophosphate dehydrogenase (Pseudomonas aeruginosa (strain ATCC 15692 / DSM 22644 / CIP 104116 / JCM14847 / LMG 12228 / 1C / PRS 101 / PAO1)); assay: Inhibition of Pseudomonas aeruginosa IMPDH at 39.6 uM using IMP as substrate in the presence of NAD+ incubated for 70 secs relative to control
[14] = target: T2, Inosine-5'-monophosphate dehydrogenase (Pseudomonas aeruginosa (strain ATCC 15692 / DSM 22644 / CIP 104116 / JCM14847 / LMG 12228 / 1C / PRS 101 / PAO1)); assay: Inhibition of Pseudomonas aeruginosa IMPDH at 41.5 uM using IMP as substrate in the presence of NAD+ incubated for 70 secs relative to control
[15] = target: T2, Inosine-5'-monophosphate dehydrogenase (Pseudomonas aeruginosa (strain ATCC 15692 / DSM 22644 / CIP 104116 / JCM14847 / LMG 12228 / 1C / PRS 101 / PAO1)); assay: Inhibition of Pseudomonas aeruginosa IMPDH at 44.7 uM using IMP as substrate in the presence of NAD+ incubated for 70 secs relative to control
[16] = target: T2, Inosine-5'-monophosphate dehydrogenase (Pseudomonas aeruginosa (strain ATCC 15692 / DSM 22644 / CIP 104116 / JCM14847 / LMG 12228 / 1C / PRS 101 / PAO1)); assay: Inhibition of Pseudomonas aeruginosa IMPDH at 43.1 uM using IMP as substrate in the presence of NAD+ incubated for 70 secs relative to control

SMILES: COc1cc(-c2ccc(/N=N/c3ccc4c(S(=O)(=O)O)cc(S(=O)(=O)O)c(N)c4c3O)c(OC)c2)ccc1/N=N/c1ccc2c(S(=O)(=O)O)cc(S(=O)(=O)O)c(N)c2c1O [CHICAGO SKY BLUE SODIUM]
IC50 ([1]; read-out: IC50): 1.6 µM
inhibition [2]: Active
inhibition [3]: 92.2%

SMILES: CC(=O)Nc1ccc(C2C3=C(Nc4c2c(=O)[nH]c(=O)n4Cc2ccccc2)c2ccccc2C3=O)cc1 (stereo not drawn)
inhibition [4]: 93.8%
IC50 ([1]; read-out: IC50): 2.8 µM
inhibition [2]: Active
K0.5 [5]: 1310 µM

SMILES: COc1ccc(CCNc2nc3cc(Cl)c(Cl)cc3nc2-n2nc(C)cc2C)cc1OC
inhibition [7]: 20%
inhibition [8]: 77.8%

SMILES: N#CC1=C(N)Oc2[nH]c(=O)[nH]c(=O)c2C1c1ccc([N+](=O)[O-])cc1 (stereo not drawn)
inhibition [9]: 87.8%
IC50 ([1]; read-out: IC50): 7 µM
inhibition [2]: Active
K0.5 [5]: 691 µM

SMILES: N#CC1=C(N)Oc2[nH]c(=O)[nH]c(=O)c2C1c1ccc([N+](=O)[O-])s1 (stereo not drawn)
IC50 ([1]; read-out: IC50): 4 µM
inhibition [2]: Active
inhibition [10]: 85.7%

SMILES: CCOc1ccc(-c2cc(C(=O)O)nc3[nH]nc(-c4ccc(Cl)cc4)c23)cc1
K0.5 [11]: 616 µM
inhibition [12]: 73%
IC50 ([1]; read-out: IC50): 18.3 µM
inhibition [2]: Active

SMILES: CC(=O)Nc1ccc(-c2cc(C(=O)O)nc3[nH]nc(-c4ccc(Cl)cc4)c23)cc1
IC50 ([1]; read-out: IC50): 19 µM
inhibition [2]: Active
inhibition [15]: 73.2%

SMILES: CN(Cc1ccccc1)Cc1nc2c(c(=O)n(C)c(=O)n2C)n1Cc1ccccc1F
inhibition [16]: 93.3%
IC50 [1]: Not Active

The next lines start with the values.

IC50 [1]: Not Active
inhibition [6]: 108%
SMILES: COc1ccc(-n2c(=O)[nH]cc(C(=O)Nc3cc(C)ccc3C)c2=O)cc1

inhibition [13]: 83.1%
IC50 ([1]; read-out: IC50): 11.7 µM
inhibition [2]: Active
SMILES: COc1ccc(-c2cc(C(=O)O)nc3[nH]nc(-c4ccc(C)cc4)c23)cc1Br

inhibition [14]: 79.9%
IC50 ([1]; read-out: IC50): 11.7 µM
inhibition [2]: Active
SMILES: COc1ccc(Br)cc1-c1cc(C(=O)O)nc2[nH]nc(-c3ccc(C)cc3)c12
